The series deals with Human breast cancer MCF-7 and MDA-MB-231 cells. Briefly: Cytotoxicity assay (trypan blue exclusion). The note with it: for IC50: read-out: IC50 values.

Structures are written as SMILES. Like-named read-outs stand apart in the source and are kept apart here.

Method: Human breast cancer MCF-7 and MDA-MB-231 cells were purchased from the Food Industry Research and Development Institute (Hsinchu, Taiwan). The cells were cultured in Dulbecco's modified Eagle's medium (Gibco) containing 10% fetal bovine serum (FBS), a 1% dilution of penicillin-streptomycin, and 2 mM glutamine. Cells were maintained at 37° C. in a humidified atmosphere of 95% air and 5% CO2. However, MDA-MB-231 cells were cultured in L-15 medium (Gibco) containing 10% fetal bovine serum (FBS), a 1% dilution of penicillin-streptomycin, and 2 mM glutamine. Cells were maintained at 37° C. in a humidified atmosphere of 100% air and 0% CO2.
The cells (1.5×10^6 per dish) were cultured in a 100-mm dish and incubated for 14 h prior to treatment with DMSO or with different concentrations of propolins (2.5, 5.0, 10, and 20.0 μg/mL) for 48 h. The propolins were small compounds with their MWs ranging from 408-492 Da. These values were converted to their respective molarities.
The cells were counted and their viability was determined by trypan blue exclusion assay. The activity was shown as IC50 value (the concentration required to induce 50% cytotoxicity), and the average value was obtained from triplicate data points.

One may read the IC50 as the midpoint of a concentration-inhibition curve. For `CC(C)=CCC/C(C)=C/Cc1c(O)cc2c(c1O)C(=O)C[C@@H](c1ccc(O)cc1)O2` [Propolin J, 5,7,4′-trihydroxy-6-geranylflavanone], the IC50 (Homo sapiens, 48 h) is 36.8 µM.

Consider `CC(C)=CCC/C(C)=C/Cc1cc([C@@H]2CC(=O)c3c(O)cc(O)cc3O2)cc(O)c1O` [Propolin F, reference compound], for which, for the setting “concentration required to induce 50% cytotoxicity, 48 h treatment, human breast cancer cells, cell line not given, one representative of three independent experiments”, the IC50 was determined as 47.2 µM.

On to `CC(C)=CCC/C(C)=C/CC/C(C)=C/Cc1c(O)cc2c(c1O)C(=O)C[C@@H](c1ccc(O)c(O)c1)O2` [Propolin I, 5,7,3′,4′-tetrahydroxy-6-farnesylflavanone], for which the IC50 (Homo sapiens, 48 h) turned out to be 10.2 µM. Further, the “cytotoxic activity against human breast cancer cells” value (conclusion in words from Table 2) is given as “cytotoxic activity”.

The record behind these values is US20110054014A1, “PRENYLFLAVANONE COMPOUNDS AND USES THEREOF” (NatureWise Biotech & Medicals Corporation, priority 2008, published 2011).
